Columns and labels:
[1] = Real time in situ AFM step velocity measurements of L-cystine crystal growth with additive; conditions: for Vo/V (inverse of V/Vo): higher = more effective inhibition; for V/Vo (normalized velocity of step advancement): supersaturated L-cystine solution, lower = more effective inhibition
Description: A Digital Instruments (Santa Barbara, Calif.) Nanoscope IIIa Multimode system is used for topographical and lattice imaging. All measurements are performed in contact mode using Veeco NP_B Si3N4 cantilever tips with a spring constant of 0.12 N/m (triangular, 196 μm length, 41 μm width) on a glass cantilever holder, and a liquid cell is created for in situ step velocity measurements. All L-cystine crystals for AFM measurements are prepared by the method described herein. Crystals are transferred onto an AFM specimen disk coated with partially cured (1 hr) UV-curable optical cement (Type SK-9, EMS Acquisition Corp.) by gently pressing the disk against hexagonal platelets or L-cystine needles isolated by filtration (Whatman Nuclepore membrane, 8 μm). The (0001) face of hexagonal platelets is exposed normal to the disk for AFM analysis with growth occurring along equivalent {1010} faces in the lateral directions, while the sides of L-cystine needles are exposed normal to the disc. The partially cured polymer with adhered crystals is completely cured by additional UV radiation (2 hrs) prior to analysis. Measurements of individual step heights for hexagonal L-cystine crystals are acquired in air (contact mode) at a scan rate of 1.00 Hz and 256 samples per line over a 15×15 μm^2 surface area. Integral and proportional gains are set to the highest possible values without obtaining feedback. Four hexagonal crystals (5 areas per crystal) are analyzed for statistical step height distributions, which are calculated from >10^3 individual steps. Lattice-resolved images of crystal surfaces are acquired in water (contact mode) using a scan rate of 112 Hz over a 12×12 nm^2 area.
Real time in situ step velocity measurements of L-cystine growth are assessed along six structurally-equivalent {1010} faces of the hexagonal structure. A liquid cell is created with the glass cantilever tip holder, and working solutions are injected through a 1-mL syringe. Prior to injecting the growth medium (i.e. supersaturated L-cystine solution), crystals are etched with deionized water in the fluid cell for one hour to remove amorphous deposits or impurities that may be present on the surface. Supersaturated solutions (0.5 g/L) are generated by adding L-cystine to deionized water, boiling the solution on a heating mantle for 20 min to completely dissolve the solute, and allowing the solution to cool for 20 min on the heating mantle before transferring the solution (via syringe) to the AFM fluid cell. This method allows the solution to gradually cool to room temperature prior to AFM measurements in an effort to minimize premature nucleation of L-cystine in the growth solution.
The effect of the compound of invention (additives) on crystal growth rates is investigated. Additives are combined with the supersaturated L-cystine following the 20 min cool down period (as discussed above) to avoid denaturing biological additives at higher temperature. A small volume (0.2 mL) of concentrated additive is mixed with 4.8 mL of L-cystine to generate 0.48 g/L L-cystine solutions with additives of varying concentrations. Control measurements without additive are performed in a similar manner, replacing concentrated additive solutions deionized water to maintain a constant L-cystine concentration. Data collection is started immediately after injecting the working solution into the AFM liquid cell. For each measurement, growth is first assessed in the absence of additive, then in the presence of additive on the identical area of the crystal surface to analyze relative changes in step velocity. Measurements are acquired at static conditions without refreshment of growth solution using supersaturated L-cystine solutions […] than the solubility of L-cystine in water, which is reported as 0.4-0.7 mM (pH 7, 25° C.). […] At static conditions, solute is depleted from solution during growth, leading to a slight decrease in the step velocity with increasing time. […]

[2] = pH 7, 25° C.; cited from earlier work

## COC(=O)[C@@H](N)CSSC[C@H](N)C(=O)OC [Compound 1, L-cystine dimethyl ester]
[1]; additive 0.015 mM
  Vo/V (inverse of V/Vo): 2.62
  V/Vo (normalized velocity of step advancement): 0.38

## N[C@@H](CSSC[C@H](N)C(=O)Oc1ccccc1)C(=O)Oc1ccccc1 [Compound 2, L-cystine diphenyl ester]
[1]; additive 0.015 mM
  Vo/V (inverse of V/Vo): 2.44
  V/Vo (normalized velocity of step advancement): 0.41

## COC(=O)[C@@H](N)CS [Compound 3, L-cysteine methyl ester]
[1]; additive 0.03 mM
  Vo/V (inverse of V/Vo): 2.05
  V/Vo (normalized velocity of step advancement): 0.49

## CCOC(=O)[C@@H](N)CSSC[C@H](N)C(=O)OCC [Compound 4, L-cystine diethyl ester]
[1]; additive 0.015 mM
  Vo/V (inverse of V/Vo): 1.79
  V/Vo (normalized velocity of step advancement): 0.56

## COC(=O)[C@@H](N)CCSSCC[C@H](N)C(=O)OC [Compound 5, L-homocystine dimethyl ester]
[1]; additive 0.015 mM
  Vo/V (inverse of V/Vo): 1.59
  V/Vo (normalized velocity of step advancement): 0.63

## CC(C)OC(=O)[C@@H](N)CSSC[C@H](N)C(=O)OC(C)C [Compound 6, L-cystine diisopropyl ester]
[1]; additive 0.015 mM
  Vo/V (inverse of V/Vo): 1.55
  V/Vo (normalized velocity of step advancement): 0.64

## COC(=O)[C@@H](N)CSSC[C@H](N)C(=O)O [Compound 7, L-cystine methyl ester]
[1]; additive 0.015 mM
  Vo/V (inverse of V/Vo): 1.47
  V/Vo (normalized velocity of step advancement): 0.68

## CC(C)(C)OC(=O)[C@@H](N)CSSC[C@H](N)C(=O)OC(C)(C)C [Compound 8, L-cystine ditert-butyl ester]
[1]; additive 0.015 mM
  Vo/V (inverse of V/Vo): 1.43
  V/Vo (normalized velocity of step advancement): 0.7

## CC(S)C(=O)NCC(=O)O (centres unmarked) [Compound 9, N-(2-Mercapto-propionyl)glycine, reference compound]
[1]; additive 0.03 mM
  Vo/V (inverse of V/Vo): 1.35
  V/Vo (normalized velocity of step advancement): 0.74

## COC(=O)[C@@H](N)C/C=C/C[C@H](N)C(=O)OC [Compound 10, L-dimethyl 2,7-diaminooct-4-enedioate]
[1]; additive 0.015 mM
  Vo/V (inverse of V/Vo): 1.23
  V/Vo (normalized velocity of step advancement): 0.81

## CC(C)(C)OC(=O)N[C@@H](CSSC[C@H](NC(=O)OC(C)(C)C)C(=O)O)C(=O)O [Compound 11, Nα,Nα′-di-Boc-L-cystine, reference compound]
[1]; additive 0.09 mM
  Vo/V (inverse of V/Vo): 1.23
  V/Vo (normalized velocity of step advancement): 0.81

## COC(=O)[C@@H](N)CCCC[C@H](N)C(=O)OC [Compound 12, L-dimethyl 2,7-diaminooctanedioate]
[1]; additive 0.015 mM
  Vo/V (inverse of V/Vo): 1.09
  V/Vo (normalized velocity of step advancement): 0.92

## N[C@@H](CCCC[C@H](N)C(=O)O)C(=O)O [Compound 14, L-diaminooctanedioic acid]
[1]; additive 0.015 mM
  Vo/V (inverse of V/Vo): 1.03
  V/Vo (normalized velocity of step advancement): 0.97

## NCCSSCCN [Compound 16, cystamine]
[1]; additive 0.015 mM
  Vo/V (inverse of V/Vo): 1
  V/Vo (normalized velocity of step advancement): 1

## N[C@@H](CS)C(=O)O [Compound 17, L-cysteine, reference compound]
[1]; additive 0.03 mM
  Vo/V (inverse of V/Vo): 1
  V/Vo (normalized velocity of step advancement): 1

## N[C@@H](CCSSCC[C@H](N)C(=O)O)C(=O)O [Compound 18, L-Homocystine, reference compound]
[1]; additive 0.015 mM
  Vo/V (inverse of V/Vo): 0.95
  V/Vo (normalized velocity of step advancement): 1.05

## COC(=O)[C@@H](N)CO [Compound 19, L-serine methyl ester]
[1]; additive 0.03 mM
  Vo/V (inverse of V/Vo): 0.93
  V/Vo (normalized velocity of step advancement): 1.07

## N[C@@H](CSSC[C@H](N)C(=O)O)C(=O)O [L-cystine]
[2]
  solubility of L-cystine in water: 400 to 700 µM
